Test results taken from PMC10747430, “^99mTc-Labeled Cyclic Peptide Targeting PD-L1 as a Novel Nuclear Imaging Probe” (Pharmaceutics, 2023).

Test system: HCC827 cells (PD-L1 positive)
Assay: Cellular uptake and internalization, HCC827
Type: cell-based, human
Conditions: HCC827, 1 × 10^6 cells/tube, 7.4 kBq, 37 °C, 1 h, n = 3
Protocol: Human colorectal cancer HCT116 (PD-L1 positive: 45.1 nTPM), human lung cancer HCC827 (PD-L1 positive: 27.1 nTPM), and […] C6 glioma cells (PD-L1 negative control) were obtained from ATCC (Atlanta, GA, USA). FBS, RPMI, and cell culture medium were obtained from Bovine and Biology (CDMX, MX). Cells were cultured in RPMI medium (5% CO2; 100 µg/mL penicillin, 15% fetal bovine serum, and 100 µg/mL streptomycin; 37 °C).
Cells diluted in phosphate-buffered saline (PBS) (pH 7.4) (1 × 10^6 cells/tube) received three different treatments: (a) [^99mTc]Tc-iPD-L1 (7.4 kBq) (n = 3), (b) and [^99mTc]Tc-WL12 (7.4 kBq) (n = 3), and (c) ^99mTcO4Na (7.4 kBq) (n = 3). Cells were incubated with each treatment at 37 °C for one hour. After incubation, tubes were measured in a NaI(Tl) detector (NML Inc., Houston, TX, USA) to establish the initial or first activity (100%). The tubes were spun at 500 g for 10 min, rinsed once with PBS, and spun once more. The liquid was removed, and the activity in the button was determined, indicating the percentage of cellular uptake (surface uptake) regarding the initial or first activity. Acetic acid/0.5 M NaCl was added, the tubes were centrifuged, and the activity was measured. The liquid was removed, and activity in button activity represented the percentage of activity internalized by cells relative to uptake activity (internalization fraction of surface uptake). […]

CCCC[C@H]1C(=O)N(C)[C@@H](CCCC)C(=O)N[C@@H](CCCNC(=O)c2ccc(NN)nc2)C(=O)N[C@H](C(=O)NCC(N)=O)CSCC(=O)N[C@@H](Cc2ccc(O)cc2)C(=O)N(C)[C@@H](C)C(=O)N[C@@H](CC(N)=O)C(=O)N2CCC[C@H]2C(=O)N[C@@H](Cc2c[nH]cn2)C(=O)N[C@@H](CC(C)C)C(=O)N2C[C@H](O)C[C@H]2C(=O)N[C@@H](Cc2c[nH]c3ccccc23)C(=O)N[C@@H](CO)C(=O)N[C@@H](Cc2cn(C)c3ccccc23)C(=O)N1C [[^99mTc]Tc-WL12, metal not drawn]
uptake and internalization compared to C6 cells (PD-L1 negative): significantly higher
